Data set [1] is classed as physicochemical. The following applies: phosphate buffer, pH 6.5. The protocol:
Amorphous 9-E-(O-methyl)oxime of 11,12-dideoxy-3-de(2,6-dideoxy-3-C-methyl-3-O-methyl-α-L-ribohexopyranosyloxy)-6-O-methyl-12,11-(iminocarbonyl-(2-(3-(4-(3-pyridinyl)-1H-imidazol-1-yl)propyl)hydrazono))-3-oxoerythromycin (130 g) was suspended in 3L of isopropyl ether containing 3% ethanol. The suspension was heated to 60° C. overnight and stirring was continued at room temperature (about 20-25° C.) for an additional 3 days. The resulting solid was collected by filtration to give 81 g of the title compound; mp 177° C. […] The crystals were characterized by the powder X-ray diffraction pattern noted below.
To a solution of amorphous 9-E-(O-methyl)oxime of 11,12-dideoxy-3-de(2,6-dideoxy-3-C-methyl-3-O-methyl-α-L-ribohexopyranosyloxy)-6-O-methyl-12,11-(iminocarbonyl-(2-(3-(4-(3-pyridinyl)-1H-imidazol-1-yl)propyl)hydrazono))-3-oxoerythromycin (200 mg) in 3 mL of CH2 Cl2 was added 1.19 mL of 2M solution of methanesulfonic acid in CH2 Cl2. The solution was stirred at room temperature (about 20-25° C.) for 15 minutes, and the solvent was evaporated. The residue was dissolved in 2 mL of ethyl acetate, and to this solution was added 1 mL of isopropyl ether. The solution was concentrated to approximately 0.5 mL and was left standing at room temperature (about 20-25° C.). The resulting crystals were collected by filtration to 175 mg of the title compound; mp: 193-194° C. […]

The nature of data set [2]: Hygroscopicity of crystalline form. The note with it: crystalline hemihydrate form of the free base. In kind it is physicochemical.

Counter-ions that a name gives are not always drawn.

For `CC[C@H]1OC(=O)[C@H](C)C(=O)[C@H](C)[C@@H](O[C@@H]2O[C@H](C)C[C@H](N(C)C)[C@H]2O)[C@](C)(OC)C[C@@H](C)/C(=N\OC)[C@H](C)[C@H]2N(NCCCn3cnc(-c4cccnc4)c3)C(=O)N[C@]12C` [Example 2, Methanesulfonic Acid Salt of 9-E-(O-Methyl)oxime of 11,12-dideoxy-3-de(2,6-dideoxy-3-C-methyl-3-O-methyl-α-L-ribohexopyranosyloxy)-6-O-methyl-12,11-(iminocarboxyl-(2-(3-(4-(3-pyridinyl)-1H-imidazol-1-yl)-propyl)hydrazo))-3-oxoerythromycin], the “water solubility of the resulting crystals” value in data set [1] worked out at 24 mg/mL.

Take `CC[C@H]1OC(=O)[C@H](C)C(=O)[C@H](C)[C@@H](O[C@@H]2O[C@H](C)C[C@H](N(C)C)[C@H]2O)[C@](C)(OC)C[C@@H](C)/C(=N\OC)[C@H](C)[C@H]2N(NCCCn3cnc(-c4cccnc4)c3)C(=O)N[C@]12C` [Example 1, 9-E-(O-Methyl)oxime of 11,12-Dideoxy-3-de(2. 6-dideoxy-3-C-methyl-3-O-methyl-α-L-ribohexopyranosyloxy)-6-O-methyl-12,11-(iminocarbonyl-(2-(3-(4-(3-pyridinyl)-1H-imidazol-1-yl)propyl)hydrazono))-3-oxoerythromycin hemihydrate]: in data set [1], the “water solubility of the resulting crystals” value is “greater than 11 mg/ml”. In addition, the hygroscopicity entry in data set [2] is on record as “non-hygroscopic”.

These data come from patent US6258785A, “Crystalline 9-E-(O-methyl)oxime of 11, 12-dideoxy-3-de(2,6-dideoxy-3-C-methyl-3-O-methyl-α-L-ribohexopyrano syloxy)-6-O-methyl-12,11-(iminocarbonyl-(2-(3-(4-(3-pyridinyl)1H-imadazol-1 -yl)propyl)hydrazono))-3-oxoerythromycin” (Pfizer Inc., priority 1999, dated 2001).
